# Target: T1, EGFR (Homo sapiens, UniProt P00533)
# T1 construct: endogenous in cells; host or cells: A431 cells (lysate, captured with SUMO1 anti-EGFR antibody)
# Assay: Biochemical EGFR Assay
# Design: concentration or dose not given beside the values
# Settings: protocol P.167
# Summary of the method: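 Readout is ABTS absorbance at 410 nm after anti-phosphotyrosine and HRP-antibody detection of EGFR autophosphorylation. The kinase was immunocaptured from A431 lysate, exposed 30 min to test compound diluted 1:10 in TBS, then phosphorylated for 5 min with ATP/MnCl2 before an EDTA stop.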
# T1 sequence (P00533 25-1210): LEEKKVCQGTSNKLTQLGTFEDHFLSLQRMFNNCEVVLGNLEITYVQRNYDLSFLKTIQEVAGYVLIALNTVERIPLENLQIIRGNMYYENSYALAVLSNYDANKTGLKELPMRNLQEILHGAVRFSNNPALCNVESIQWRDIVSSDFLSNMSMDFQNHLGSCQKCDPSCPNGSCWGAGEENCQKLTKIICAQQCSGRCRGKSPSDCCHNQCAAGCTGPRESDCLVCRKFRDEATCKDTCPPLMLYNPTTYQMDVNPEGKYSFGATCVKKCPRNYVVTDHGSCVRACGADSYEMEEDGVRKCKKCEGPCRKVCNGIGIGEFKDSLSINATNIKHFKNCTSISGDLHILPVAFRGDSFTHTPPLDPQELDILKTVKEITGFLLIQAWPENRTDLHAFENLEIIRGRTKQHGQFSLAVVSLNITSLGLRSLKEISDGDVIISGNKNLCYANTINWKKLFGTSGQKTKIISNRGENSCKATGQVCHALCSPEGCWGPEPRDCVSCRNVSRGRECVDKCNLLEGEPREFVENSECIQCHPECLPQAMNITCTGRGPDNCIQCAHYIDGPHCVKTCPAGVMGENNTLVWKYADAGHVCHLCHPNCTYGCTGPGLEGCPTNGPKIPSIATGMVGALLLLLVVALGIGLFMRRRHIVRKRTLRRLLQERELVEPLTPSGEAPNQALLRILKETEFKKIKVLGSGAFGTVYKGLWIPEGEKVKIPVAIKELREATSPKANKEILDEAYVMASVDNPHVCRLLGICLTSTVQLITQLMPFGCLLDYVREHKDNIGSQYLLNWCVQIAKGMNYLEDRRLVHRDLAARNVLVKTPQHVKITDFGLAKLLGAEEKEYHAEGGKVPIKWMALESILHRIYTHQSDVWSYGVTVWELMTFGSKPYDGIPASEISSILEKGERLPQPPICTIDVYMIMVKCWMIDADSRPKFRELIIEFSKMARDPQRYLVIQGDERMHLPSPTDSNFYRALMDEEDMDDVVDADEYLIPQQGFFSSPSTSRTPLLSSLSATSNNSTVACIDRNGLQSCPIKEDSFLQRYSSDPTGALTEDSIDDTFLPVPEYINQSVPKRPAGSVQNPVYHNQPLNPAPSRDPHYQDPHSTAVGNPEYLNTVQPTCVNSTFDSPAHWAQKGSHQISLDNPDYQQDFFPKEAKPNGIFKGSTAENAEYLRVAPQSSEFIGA
row,Structure (SMILES),Biochem EGFR % Inhibition (P.167) [%]
1,COC1CCCN1C=C1C(=O)Nc2c(Br)cc(Br)cc21 (racemic) [10740/A04],5.2
2,COC1CCCN1C=C1C(=O)Nc2ccc(I)cc21 (racemic) [10740/B04],36.9
3,Cc1c(Br)cc(Br)c2c1C(=Cc1ccc(CO)o1)C(=O)N2 [10739/H11],49.9
4,O=C1Nc2c(Br)cc(Br)cc2C1=Cc1cnc2ccccc2c1 [10740/A02],−2.4
5,O=C1Nc2c(Br)cc(Br)cc2C1=Cc1ccnc2ccccc12 [10740/A03],8.2
6,O=C1Nc2c(Br)cc(Br)cc2C1=Cc1ccsc1 [10740/A05],30.3
7,O=C1Nc2c(Br)cc(Br)cc2C1=Cc1ccc2ccccc2n1 [10740/A06],13.1
8,Cn1cc(C=C2C(=O)Nc3c(Br)cc(Br)cc32)c2ccccc21 [10740/A07],18.7
9,Cc1[nH]c2ccccc2c1C=C1C(=O)Nc2c(Br)cc(Br)cc21 [10740/A08],−7.9
10,O=C1Nc2c(Br)cc(Br)cc2C1=Cc1cc(Br)cs1 [10740/A10],21.9
11,CCCCOc1ccc(C=C2C(=O)Nc3c(Br)cc(Br)cc32)cc1 [10740/A11],26.0
12,O=C1Nc2ccc(I)cc2C1=Cc1cnc2ccccc2c1 [10740/B02],46.1
13,O=C1Nc2ccc(I)cc2C1=Cc1ccnc2ccccc12 [10740/B03],40.1
14,O=C1Nc2ccc(I)cc2C1=Cc1ccsc1 [10740/B05],30.7
15,O=C1Nc2ccc(I)cc2C1=Cc1ccc2ccccc2n1 [10740/B06],44.4
16,Cn1cc(C=C2C(=O)Nc3ccc(I)cc32)c2ccccc21 [10740/B07],48.9
17,Cc1[nH]c2ccccc2c1C=C1C(=O)Nc2ccc(I)cc21 [10740/B08],34.8
18,O=C1Nc2ccc(I)cc2C1=Cc1cc(Br)cs1 [10740/B10],39.9
19,CCCCOc1ccc(C=C2C(=O)Nc3ccc(I)cc32)cc1 [10740/B11],48.1
20,Cc1c(Br)ccc2c1C(=Cc1cnc3ccccc3c1)C(=O)N2 [10740/C02],15.6
21,Cc1c(Br)ccc2c1C(=Cc1ccnc3ccccc13)C(=O)N2 [10740/C03],7.2
22,COC1CCCN1C=C1C(=O)Nc2ccc(Br)c(C)c21 (stereo not shown) [10740/C04],7.8
23,Cc1c(Br)ccc2c1C(=Cc1ccsc1)C(=O)N2 [10740/C05],3.5
24,Cc1c(Br)ccc2c1C(=Cc1ccc3ccccc3n1)C(=O)N2 [10740/C06],18.2
25,Cc1c(Br)ccc2c1C(=Cc1cn(C)c3ccccc13)C(=O)N2 [10740/C07],5.0

row,Structure (SMILES),Biochem EGFR % Inhibition (P.167) [%]
1,Cc1[nH]c2ccccc2c1C=C1C(=O)Nc2ccc(Br)c(C)c21 [10740/C08],10.7
2,Cc1c(Br)ccc2c1C(=Cc1cc(Br)cs1)C(=O)N2 [10740/C10],21.9
3,CCCCOc1ccc(C=C2C(=O)Nc3ccc(Br)c(C)c32)cc1 [10740/C11],18.7
4,CNS(=O)(=O)c1ccc2c(c1)C(=Cc1cnc3ccccc3c1)C(=O)N2 [10740/D02],0.0
5,CNS(=O)(=O)c1ccc2c(c1)C(=Cc1ccnc3ccccc13)C(=O)N2 [10740/D03],−6.9
6,CNS(=O)(=O)c1ccc2c(c1)C(=CN1CCCC1OC)C(=O)N2 (stereo not shown) [10740/D04],−1.2
7,CNS(=O)(=O)c1ccc2c(c1)C(=Cc1ccsc1)C(=O)N2 [10740/D05],7.4
8,CNS(=O)(=O)c1ccc2c(c1)C(=Cc1ccc3ccccc3n1)C(=O)N2 [10740/D06],5.8
9,CNS(=O)(=O)c1ccc2c(c1)C(=Cc1cn(C)c3ccccc13)C(=O)N2 [10740/D07],−3.0
10,CNS(=O)(=O)c1ccc2c(c1)C(=Cc1c(C)[nH]c3ccccc13)C(=O)N2 [10740/D08],−5.7
11,CNS(=O)(=O)c1ccc2c(c1)C(=Cc1cc(Br)cs1)C(=O)N2 [10740/D10],9.9
12,CCCCOc1ccc(C=C2C(=O)Nc3ccc(S(=O)(=O)NC)cc32)cc1 [10740/D11],19.3
13,O=C1Nc2ccc(S(=O)(=O)Nc3ccc(C(F)(F)F)cc3)cc2C1=Cc1cnc2ccccc2c1 [10740/E02],−7.7
14,O=C1Nc2ccc(S(=O)(=O)Nc3ccc(C(F)(F)F)cc3)cc2C1=Cc1ccnc2ccccc12 [10740/E03],24.6
15,COC1CCCN1C=C1C(=O)Nc2ccc(S(=O)(=O)Nc3ccc(C(F)(F)F)cc3)cc21 (stereo not shown) [10740/E04],12.3
16,O=C1Nc2ccc(S(=O)(=O)Nc3ccc(C(F)(F)F)cc3)cc2C1=Cc1ccsc1 [10740/E05],29.1
17,O=C1Nc2ccc(S(=O)(=O)Nc3ccc(C(F)(F)F)cc3)cc2C1=Cc1ccc2ccccc2n1 [10740/E06],0.0
18,Cn1cc(C=C2C(=O)Nc3ccc(S(=O)(=O)Nc4ccc(C(F)(F)F)cc4)cc32)c2ccccc21 [10740/E07],2.7
19,Cc1[nH]c2ccccc2c1C=C1C(=O)Nc2ccc(S(=O)(=O)Nc3ccc(C(F)(F)F)cc3)cc21 [10740/E08],3.1
20,O=C1Nc2ccc(S(=O)(=O)Nc3ccc(C(F)(F)F)cc3)cc2C1=Cc1cc(Br)cs1 [10740/E10],33.0
21,CCCCOc1ccc(C=C2C(=O)Nc3ccc(S(=O)(=O)Nc4ccc(C(F)(F)F)cc4)cc32)cc1 [10740/E11],8.8
22,O=C1Nc2ccc(S(=O)(=O)N3CCOCC3)cc2C1=Cc1cnc2ccccc2c1 [10740/F02],5.8
23,O=C1Nc2ccc(S(=O)(=O)N3CCOCC3)cc2C1=Cc1ccnc2ccccc12 [10740/F03],16.8
24,COC1CCCN1C=C1C(=O)Nc2ccc(S(=O)(=O)N3CCOCC3)cc21 (stereo not shown) [10740/F04],11.1
25,O=C1Nc2ccc(S(=O)(=O)N3CCOCC3)cc2C1=Cc1ccsc1 [10740/F05],14.8

row,Structure (SMILES),Biochem EGFR % Inhibition (P.167) [%]
1,O=C1Nc2ccc(S(=O)(=O)N3CCOCC3)cc2C1=Cc1ccc2ccccc2n1 [10740/F06],19.9
2,Cn1cc(C=C2C(=O)Nc3ccc(S(=O)(=O)N4CCOCC4)cc32)c2ccccc21 [10740/F07],−4.2
3,Cc1[nH]c2ccccc2c1C=C1C(=O)Nc2ccc(S(=O)(=O)N3CCOCC3)cc21 [10740/F08],5.0
4,O=C1Nc2ccc(S(=O)(=O)N3CCOCC3)cc2C1=Cc1cc(Br)cs1 [10740/F10],9.5
5,CCCCOc1ccc(C=C2C(=O)Nc3ccc(S(=O)(=O)N4CCOCC4)cc32)cc1 [10740/F11],5.4
6,O=C1Nc2ccc(CCCl)cc2C1=Cc1cnc2ccccc2c1 [10740/G02],−9.4
7,O=C1Nc2ccc(CCCl)cc2C1=Cc1ccnc2ccccc12 [10740/G03],19.5
8,COC1CCCN1C=C1C(=O)Nc2ccc(CCCl)cc21 (stereo not shown) [10740/G04],7.6
9,O=C1Nc2ccc(CCCl)cc2C1=Cc1ccsc1 [10740/G05],18.7
10,O=C1Nc2ccc(CCCl)cc2C1=Cc1ccc2ccccc2n1 [10740/G06],−1.2
11,Cn1cc(C=C2C(=O)Nc3ccc(CCCl)cc32)c2ccccc21 [10740/G07],27.9
12,Cc1[nH]c2ccccc2c1C=C1C(=O)Nc2ccc(CCCl)cc21 [10740/G08],−9.1
13,O=C1Nc2ccc(CCCl)cc2C1=Cc1cc(Br)cs1 [10740/G10],1.9
14,CCCCOc1ccc(C=C2C(=O)Nc3ccc(CCCl)cc32)cc1 [10740/G11],−3.4
15,Cc1c(Br)cc(Br)c2c1C(=Cc1cnc3ccccc3c1)C(=O)N2 [10740/H02],−9.1
16,Cc1c(Br)cc(Br)c2c1C(=Cc1ccnc3ccccc13)C(=O)N2 [10740/H03],16.0
17,COC1CCCN1C=C1C(=O)Nc2c(Br)cc(Br)c(C)c21 (stereo not shown) [10740/H04],−21.0
18,Cc1c(Br)cc(Br)c2c1C(=Cc1ccsc1)C(=O)N2 [10740/H05],−4.4
19,Cc1c(Br)cc(Br)c2c1C(=Cc1ccc3ccccc3n1)C(=O)N2 [10740/H06],4.8
20,Cc1c(Br)cc(Br)c2c1C(=Cc1cn(C)c3ccccc13)C(=O)N2 [10740/H07],−5.3
21,Cc1[nH]c2ccccc2c1C=C1C(=O)Nc2c(Br)cc(Br)c(C)c21 [10740/H08],−24.3
22,Cc1c(Br)cc(Br)c2c1C(=Cc1cc(Br)cs1)C(=O)N2 [10740/H10],−25.5
23,CCCCOc1ccc(C=C2C(=O)Nc3c(Br)cc(Br)c(C)c32)cc1 [10740/H11],0.9
